Test results taken from patent publication US20250144186A1, “NOVEL THERAPEUTIC USES OF GARDNERELLA ENDOLYSINS” (priority 2022, published 2025).
In brackets after ≈: the same amount, converted by molar mass. Where two headings read alike, the source gives them in different places.

Experiments:
[1] = tested on: Gardnerella vaginalis; experiment: microbe, parasite or virus in culture; format: cell-based; conditions: Gardnerella vaginalis
Description: (§1) The minimum inhibitory concentration (MIC), which is a standard measure of the activity of antimicrobials, was determined according to the Clinical and Laboratory Standards Institute protocol (2018) Methods for Antimicrobial Susceptibility Testing of Anaerobic Bacteria (Carpenter et al., 2018). […] Controls for growth in the absence of antimicrobials were also included. OD600 was recorded by a microplate reader (Tecan, Grodig, Austria) after incubation at 37° C. for 48 h or, for some fast-growing strains, after incubation for 24 h. Absence of growth was defined as OD600≤0.14. […] MIC readout and MBC99.5 spotting were performed after 72 h incubation for H2B10B11.
(§2) However, topical intravaginal antibiotic administration is recommended for BV therapy, which allows to reach concentrations of active ingredients in the mg/mL range. […] Abbreviations: n.d., not determined; SJHB, St. Jan Hospital Bruges.
(§3) MIC90 is defined as the MIC value for 90% of the tested strains. For PM-477 (H2B10), the resistance breakpoint is not defined, therefore a “% resistant” is not defined (n.d.).

[2] = tested on: Gardnerella swidsinskii; experiment: microbe, parasite or virus in culture; format: cell-based; conditions: Gardnerella swidsinskii
Description: as §1, §2, §3

[3] = tested on: All Gardnerella; experiment: MIC assessment in suspension, panel of 22 strains; format: cell-based, Gardnerella spp.
Description: as §1, §2, §3

[4] = tested on: Gardnerella leopoldii; experiment: MIC / MBC99.5 assessment in suspension; format: cell-based; conditions: Gardnerella leopoldii; for MIC: read-out: MIC; for MBC: read-out: MBC99.5
Description: as §1, §2, §3

[5] = tested on: Gardnerella piotii; experiment: MIC / MBC99.5 assessment in suspension; format: cell-based; conditions: Gardnerella piotii; for MIC: read-out: MIC
Description: as §1, §2, §3

[6] = tested on: Gardnerella type strains and patient isolates; experiment: MIC and MBC99.5 on about 100 type strains and patient isolates of various origins; format: cell-based, Gardnerella spp.
Description: as §1
MIC and MBC99.5 of H2B10B11 on a panel of about 100 Gardnerella type strains and patient isolates from various geographic origins were determined following the CLSI protocol. […] For a subset of fast-growing strains thereof and for some additional strains, MIC determination was performed after 48 h of incubation to bridge the results to earlier assessed MIC values (FIG. 6). In total, MIC was determined for 104 different strains (the MIC of 15 strains was determined both, after 48 h and 72 h). […] The number of strains in each group is stated on the right site of the graph.

[7] = tested on: Gardnerella strains from vaginal swabs of BV patients; experiment: MIC and MBC99.5 on 18 in-house BV patient isolates; format: cell-based, Gardnerella spp.
Description: as §1

[8] = ATCC14018, 24 h, read-out: MBC99.5, G. vaginalis (Gv9) ATCC 14018(T), reduces CFU by 99.5% within 24 h
[9] = ATCC14018, G. vaginalis (Gv9) ATCC 14018(T), suspension
[10] = G. vaginalis (BV50) UGent BV50.1, suspension
[11] = G. vaginalis (FB049) UGent FB049-01, suspension
[12] = read-out: MBC99.5, G. vaginalis (BV111) UGent BV111.5
[13] = read-out: MBC99.5, G. vaginalis (FB049) UGent FB049-01
[14] = G. swidsinskii (BV7) UGent BV7.1, suspension
[15] = G. swidsinskii (Gs23) GS 10234, suspension
[16] = G. swidsinskii (Gs24) GS 9838-1(T), suspension
[17] = read-out: MBC99.5, G. swidsinskii (BV7) UGent BV7.1
[18] = read-out: MBC99.5, G. swidsinskii (Gs23) GS 10234
[19] = read-out: MBC99.5, G. swidsinskii (Gs24) GS 9838-1(T)
[20] = G. leopoldii (BV13) UGent BV13.2, suspension
[21] = G. leopoldii (BV13) UGent BV13.2
[22] = G. leopoldii (Gl11) UGent 09.48, suspension
[23] = G. leopoldii (Gl11) UGent 09.48
[24] = G. piotii (FB041) UGent FB041, suspension
[25] = G. piotii (Gp17) UGent 18.01(T)
[26] = G. piotii (Gp17) UGent 18.01(T), suspension
[27] = G. piotii (Gp22) UGent 21.28, suspension
[28] = G. piotii (P80275) UGent P80275
[29] = G. piotii (P80275) UGent P80275, suspension
[30] = MIC after 72 h, unpaired t-test of log2-transformed data

CCC[C@@H]1C[C@@H](C(=O)N[C@@H]([C@H]2O[C@H](SC)[C@H](O)[C@@H](O)[C@H]2O)[C@H](C)Cl)N(C)C1 [CLI, clindamycin]
MIC90 [1]: 0.5 mg/L (≈ 1.18 µM) | MBC [1, 8]: 0.5 mg/L (≈ 1.18 µM) | MIC [1, 9]: 0.25 mg/L (≈ 0.588 µM) | MIC [1, 10]: 0.25 mg/L (≈ 0.588 µM) | MIC [1, 11]: 0.5 mg/L (≈ 1.18 µM) | MIC Range ([1]; N=8 strains): <0.06 to 0.5 mg/L | MBC ([1]; read-out: MBC99.5, G. vaginalis (BV50) UGent BV50.1): 0.5 mg/L (≈ 1.18 µM) | MBC [1, 12]: 2 mg/L (≈ 4.71 µM) | MBC [1, 13]: 1 mg/L (≈ 2.35 µM) | MIC [2]: 0.125 mg/L (≈ 0.294 µM) | MIC90 [2]: 0.5 mg/L (≈ 1.18 µM) | MIC [2, 14]: 0.5 mg/L (≈ 1.18 µM) | MIC [2, 15]: 0.25 mg/L (≈ 0.588 µM) | MIC [2, 16]: < 0.06 mg/L | MIC Range ([2]; N=4 strains): <0.06 to 0.5 mg/L | MBC [2, 17]: 1 mg/L (≈ 2.35 µM) | MBC ([2]; read-out: MBC99.5, G. swidsinskii (BV139) UGent BV139.3): 0.25 mg/L (≈ 0.588 µM) | MBC [2, 18]: 0.25 mg/L (≈ 0.588 µM) | MBC [2, 19]: 0.5 mg/L (≈ 1.18 µM) | N resistant ([3]; N=22, resistance ≥32 μg/mL MDZ, ≥8 μg/mL CLI): 0 | MIC Range ([3]; N=22 strains): <0.06-2^ μg/mL | MIC90 ([3]; N=22 strains, read-out: MIC90): 0.5 mg/L (≈ 1.18 µM) | MIC [4, 20]: 0.5 mg/L (≈ 1.18 µM) | MBC [4, 21]: 1 mg/L (≈ 2.35 µM) | MIC ([4]; G. leopoldii (BV217) UGent BV217.1, suspension): 0.5 mg/L (≈ 1.18 µM) | MBC ([4]; G. leopoldii (BV217) UGent BV217.1): 1 mg/L (≈ 2.35 µM) | MIC [4, 22]: 0.5 mg/L (≈ 1.18 µM) | MBC [4, 23]: 1 mg/L (≈ 2.35 µM) | N resistant ([4]; N=3, resistance ≥32 μg/mL MDZ, ≥8 μg/mL CLI): 0 | MIC Range ([4]; N=3 strains): 0.5 mg/L (≈ 1.18 µM) | MIC90 ([4]; N=3 strains, read-out: MIC90): 0.5 mg/L (≈ 1.18 µM) | MBC ([5]; G. piotii (BV049) UGent BV049.1): 0.125 mg/L (≈ 0.294 µM) | MIC ([5]; G. piotii (BV140) UGent BV140.2, suspension): 2 mg/L (≈ 4.71 µM) | MBC ([5]; G. piotii (BV154) UGent BV154.1): 0.5 mg/L (≈ 1.18 µM) | MIC ([5]; G. piotii (BV154) UGent BV154.1, suspension): 0.5 mg/L (≈ 1.18 µM) | MBC ([5]; G. piotii (FB041) UGent FB041): 2 mg/L (≈ 4.71 µM) | MIC [5, 24]: 1 mg/L (≈ 2.35 µM) | MBC [5, 25]: 1 mg/L (≈ 2.35 µM) | MIC [5, 26]: 0.5 mg/L (≈ 1.18 µM) | MBC ([5]; G. piotii (Gp22) UGent 21.28): 0.5 mg/L (≈ 1.18 µM) | MIC [5, 27]: 0.25 mg/L (≈ 0.588 µM) | MBC [5, 28]: 1 mg/L (≈ 2.35 µM) | MIC [5, 29]: 0.5 mg/L (≈ 1.18 µM) | N resistant ([5]; N=7, resistance ≥32 μg/mL MDZ, ≥8 μg/mL CLI): 0 | MIC Range ([5]; N=7 strains): 0.125-2^ μg/mL | MIC90 ([5]; N=7 strains, read-out: MIC90): 2 mg/L (≈ 4.71 µM) | MIC ([5]; G. piotii (BV049) UGent BV049.1, suspension): 0.125 mg/L (≈ 0.294 µM) | MBC ([5]; G. piotii (BV140) UGent BV140.2): 64 mg/L (≈ 151 µM)

CCS(=O)(=O)CCn1c([N+](=O)[O-])cnc1C [TDZ, tinidazole]
MBC [1, 8]: > 128 mg/L | MIC [1, 9]: 128 mg/L (≈ 518 µM) | MIC [1, 10]: 64 mg/L (≈ 259 µM) | MIC [1, 11]: 8 mg/L (≈ 32.4 µM) | MIC ([1]; G. vaginalis (FB061) UGent FB061-03, suspension, read-out: MIC): 4 mg/L (≈ 16.2 µM) | MBC ([1]; G. vaginalis (FB061) UGent FB061-03, read-out: MBC99.5): 32 mg/L (≈ 129 µM) | MIC ([1]; G. vaginalis (Gv1) UGent 09.07, suspension, read-out: MIC): > 128 mg/L | MBC ([1]; G. vaginalis (Gv1) UGent 09.07, read-out: MBC99.5): > 128 mg/L | MIC ([1]; G. vaginalis (Gv5) UGent 09.01, suspension, read-out: MIC): 4 mg/L (≈ 16.2 µM) | MBC ([1]; G. vaginalis (Gv5) UGent 09.01, read-out: MBC99.5): 8 mg/L (≈ 32.4 µM) | MIC ([1]; G. vaginalis (Gv8) UGent 25.49, suspension, read-out: MIC): 4 mg/L (≈ 16.2 µM) | MBC ([1]; G. vaginalis (Gv8) UGent 25.49, read-out: MBC99.5): 32 mg/L (≈ 129 µM) | MBC [1, 12]: 128 mg/L (≈ 518 µM) | MBC [1, 13]: 64 mg/L (≈ 259 µM) | MIC [2, 14]: 128 mg/L (≈ 518 µM) | MIC [2, 15]: > 128 mg/L | MIC [2, 16]: > 128 mg/L | MBC [2, 17]: > 128 mg/L | MBC [2, 18]: > 128 mg/L | MBC [2, 19]: > 128 mg/L | MIC [4, 20]: > 128 mg/L | MBC [4, 21]: 128 mg/L (≈ 518 µM) | MIC [4, 22]: 128 mg/L (≈ 518 µM) | MBC [4, 23]: > 128 mg/L | MBC ([5]; G. piotii (FB041) UGent FB041): 128 mg/L (≈ 518 µM) | MIC [5, 24]: 64 mg/L (≈ 259 µM) | MBC [5, 25]: > 128 mg/L | MIC [5, 26]: 64 mg/L (≈ 259 µM) | MBC ([5]; G. piotii (Gp22) UGent 21.28): > 128 mg/L | MIC [5, 27]: > 128 mg/L | MBC [5, 28]: 128 mg/L (≈ 518 µM) | MIC [5, 29]: 32 mg/L (≈ 129 µM)

B1: H2B10B11: recombinant endolysin, SEQ ID NO: 37; differs from H2B10 in one amino acid exchange in one of the binding domains (protein)
chain: MSKRGIDVSEWQGDIDFNAVKASGVEFVIIRAGYGIGCKDKWFEQNYRKAKTCGLDVGAYWYSYANSGFEAAEEAQSCVNMLSGKSFEYPVYFDLEEKSQLNRGRAFCDSLITGFCNKLESCGYYAGFYTSLSTANNLVSAHVRNRYALWIAQWNTHCSYQGSYGLWQYSSSGSVPGVAGRVDMDYAYVDYPSIIKNVGLNGYKNGGSYTAPQISSIDEVAREVINGDWGNGNERKQRLTSAGYDYASVQNKVNELLGVKAYRKSVDELAREVIRGTWGNGSTRKQRLTQAGYDYDAVQKRVNELL
modifications: H2B10B11
Susceptibility of BV patient isolates of various origins (FIG. 6) [6]: susceptible | MIC and MBC99.5 values, readout after 48 h compared to 72 h ([6]; 15 strains determined both after 48 h and 72 h): one concentration lower | difference between the MICs of G. vaginalis and G. leopoldii/swidsinskii [6, 30]: no significant difference | difference in susceptibility between isolates from African and European BV patients [6, 30]: no significant difference | median MBC99.5 ([7]; 18 in-house BV patient isolates): 8 mg/L | median MIC ([7]; 18 in-house BV patient isolates, H2B10B11 read after 72 h): 2 mg/L | MIC90 ([7]; panel of 18 BV patient isolates): 4.4 mg/L | Lytic effect on MDZ-resistant Gardnerella isolates (FIG. 5) ([7]; panel of n=18 BV patient isolates): maintained | inhibiting concentration (MIC) ([7]; the 10 MDZ-resistant isolates of the panel of 18): 4 to 8 mg/L
